Laboratory results: the Kinase Knowledgebase extract (Sharma et al. 2016)

Tests used:
[1] = molecular target: MAPK14 (UniProt Q16539); test: MAPK14 (CSBP) Binding Inhibition
[2] = molecular target: MAPK14 (UniProt Q16539); test: TNF Inhibition (In Vivo Assay)

Chain of MAPK14 (Q16539 whole entry, looked up): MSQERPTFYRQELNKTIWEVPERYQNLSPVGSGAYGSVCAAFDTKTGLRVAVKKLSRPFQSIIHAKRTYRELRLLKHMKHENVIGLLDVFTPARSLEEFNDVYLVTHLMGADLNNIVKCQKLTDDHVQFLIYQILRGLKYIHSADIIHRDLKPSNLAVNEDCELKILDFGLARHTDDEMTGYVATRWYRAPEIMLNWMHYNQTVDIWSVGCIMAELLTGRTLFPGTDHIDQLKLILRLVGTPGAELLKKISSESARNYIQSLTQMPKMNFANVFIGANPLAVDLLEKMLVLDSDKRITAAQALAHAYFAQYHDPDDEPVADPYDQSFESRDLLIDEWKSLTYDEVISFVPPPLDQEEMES

SMILES	IC50 [1] [µM]	IC50 [2] [µM]
O=C1CCC(n2cnc(-c3ccc(F)cc3)c2-c2ccnc(O)n2)CC1	< 50	
CC(C)Oc1nccc(-c2c(-c3ccc(F)cc3)ncn2C2CCC(=O)CC2)n1	< 50	< 50
COc1nccc(-c2c(-c3ccc(F)cc3)ncn2[C@H]2CC[C@@](C)(O)CC2)n1.COc1nccc(-c2c(-c3ccc(F)cc3)ncn2[C@H]2CC[C@](C)(O)CC2)n1	< 50	< 50
CC(C)Oc1nccc(-c2c(-c3ccc(F)cc3)ncn2C2CCC(O)CC2)n1 (stereo unspecified)	< 50	< 50
COc1nccc(-c2c(-c3ccc(F)cc3)ncn2C2CCC(=O)CC2)n1	< 50	< 50

Results, then the compound that gave them:

IC50 [1] [µM]	IC50 [2] [µM]	SMILES
< 50		CSc1nccc(-c2c(-c3ccc(F)cc3)ncn2C2CCC(=O)CC2)n1
< 50		CSc1nccc(-c2c(-c3ccc(F)cc3)ncn2[C@H]2CC[C@H](O)CC2)n1
